The results in this text go back to patent US8476197B2, “Aminopropenoates as fungicides” (priority 2009, dated 2013).

As usually defined, the Log P is the decadic logarithm of the partition coefficient of the neutral form, usually between octanol and water.

SMILES strings stand for the structures. Marks after values point to notes of the source that are not given here.

For one series the following is noted: pH 2.3.
With `CCOC(=O)C(C#N)=C(NC(C)C(C)C)c1cccnc1-c1ccc(OC(F)(F)F)cc1` (stereo not shown) [Compound 1586], the “Log P” value was 4.39.

For the compound `CCOC(=O)C(C#N)=C(Nc1ccccc1F)c1cccnc1Cl` [Compound 1590], the “Log P” value is reported as 2.87.

On to `COC(=O)C(C#N)=C(NCC1OCCO1)c1cccnc1Cl` [Compound 14], for which the “Log P” value was found to be 1.79.

Still in this series, the particulars now being: pH 2.7.
In the case of `CCN(CC)CC(C)NC(=C(C#N)C(=O)OC)c1cccnc1Cl` (stereo not shown) [Compound 622], the “Log P” value was 0.86^[a].

Regarding `CCOC(=O)C(C#N)=C(Nc1ccc(OC)cc1)c1sc(C)nc1C(F)(F)F` [Compound 492], the log partition coefficient (Log P) is 3.44^[a].

As for `COC(=O)C(C#N)=C(NC(C)(C)c1ccc(OC)cc1)c1cccnc1Cl` [Compound 386], the “Log P” value was 3.02^[a].

Regarding `CCOC(=O)C(C#N)=C(NCC1(C)CCCO1)c1cccnc1Cl` (stereo not shown) [Compound 1357], the “Log P” value was 2.7^[a].

In the case of `CCOC(=O)C(C#N)=C(NC1C2CCCCC21)c1cccnc1Cl` (stereo not shown) [Compound 1083], the “Log P” value is 3.73^[a].

For the compound `CCNC(=O)C(C#N)=C(NC(C)c1nccs1)c1ccnc(Cl)c1Cl` (stereo not shown) [Compound 1289], the “Log P” value is 2.57^[a].

Take `CCOC(=O)C(C#N)=C(NC(C)c1ccccn1)c1cn(C)nc1C(F)F` (racemic) [Compound 36]: the lipophilicity (Log P) was 2.33^[a].

`CCOC(=O)C(C#N)=C(NC(C)C(N)=O)c1c(C)nn(C)c1Cl` (stereo not shown) [Compound 607]: the “Log P” value is 1.58^[a].

`CCOC(=O)C(C#N)=C(NC(C)C(C)C)c1cccnc1C(F)(F)F` (stereo not shown) [Compound 970]: the “Log P” value was 3.62^[a].

`CCOC(=O)C(C#N)=C(NC(C)c1cccs1)c1sccc1Br` (stereo not shown) [Compound 211]: the “Log P” value is 3.92^[a].

For `CCOC(=O)C(C#N)=C(NCc1ccccn1)c1ccsc1I` [Compound 166], the “Log P” value is 2.56^[a].

Regarding `CCOC(=O)C(C#N)=C(NC(C)C(N)=O)c1sccc1C(F)(F)F` (racemic) [Compound 660], the lipophilicity (Log P) was 2.13^[a].

As for `CCOC(=O)C(C#N)=C(NC(C)c1nccs1)c1conc1C` (stereo not shown) [Compound 77], the “Log P” value is 2.4^[a].

As to `CCOC(=O)C(C#N)=C(NC(C)CC(F)(F)F)c1cccnc1Cl` (stereo not shown) [Compound 1366], the log partition coefficient (Log P) is 2.92^[a].

Turning to `CCOC(=O)C(C#N)=C(NC(C)c1ccc(C)cc1)c1sccc1Br` (mixture of isomers) [Compound 447], the “Log P” value is 4.49^[a].

As for `CCOC(=O)C(C#N)=C(NC1CCC(OCC)CC1)c1cn(C)nc1C(F)F` (stereo not shown) [Compound 1337], the “Log P” value is 3.08^[a].

`CCOC(=O)C(C#N)=C(NC(C)COCc1ccccc1)c1cccnc1Cl` (stereo not shown) [Compound 1162]: the “Log P” value is 3.71^[a].

On to `COC(=O)C(C#N)=C(NC(C)COc1c(C)cccc1C)c1sc(C)nc1C(F)(F)F` (racemic) [Compound 662], for which the “Log P” value is 4.34^[a].

Regarding `COC(=O)C(C#N)=C(NC(C)c1ccc2c(c1)OCO2)c1cccnc1Cl` (stereo not shown) [Compound 402], the “Log P” value was 2.53^[a].

Turning to `CCOC(=O)C(C#N)=C(NC(C#N)CC)c1cn(C)nc1C(F)F` (racemic) [Compound 1251], the log partition coefficient (Log P) is 2.45^[a].

In the case of `CCOC(=O)C(C#N)=C(NCc1ccccn1)c1sccc1C(F)(F)F` [Compound 102], the “Log P” value was 2.84^[a].

For the compound `C#CC(C)NC(=C(C#N)C(=O)OCC)c1sc(C)nc1C(F)(F)F` (stereo not shown) [Compound 1050], the “Log P” value is 3.06^[a].

`CCOC(=O)C(C#N)=C(NC(C)C1(Cl)CC1)c1sc(C)nc1C(F)(F)F` (stereo not shown) [Compound 772]: the “Log P” value was 3.89^[a].

On to `CCOC(=O)C(C#N)=C(NCc1ccc(C)c(C)n1)c1scnc1Cl` [Compound 1478], for which the “Log P” value is 1.94^[a].

`CC(NC(=C(C#N)C(=O)N1CCOCC1)c1cn(C)nc1C(F)F)c1ccccn1` (stereo not shown) [Compound 1328]: the “Log P” value is 1.63^[a].

For the compound `CCOC(=O)C(C#N)=C(NC(C)COC)c1sccc1Br` (stereo not shown) [Compound 734], the “Log P” value is 3.21^[a].

Take `COC(=O)C(C#N)=C(NC1CCCCNC1=O)c1cccnc1Cl` (stereo not shown) [Compound 123]: the lipophilicity (Log P) is 1.57^[a].

With `CCOC(=O)C(C#N)=C(NC(c1ccc(N(C)C)cc1)C(F)(F)F)c1cn(C)nc1C(F)F` (racemic) [Compound 556], the “Log P” value is 3.78^[a].

On to `CC(C)C(C)NC(=C(C#N)C(=O)NC1CC1(C)C)c1cccnc1Cl` (mixture of isomers) [Compound 1495], for which the “Log P” value was 3.72^[a].

As for `CCOC(=O)C(C#N)=C(NC(C)(C)C(=O)OC)c1sccc1C(F)(F)F` [Compound 694], the “Log P” value is 3.37^[a].

On to `CCOC(=O)C(C#N)=C(NC(C)c1ccc(Cl)cc1)c1cn(C)nc1C(C)F` (mixture of isomers) [Compound 520], for which the “Log P” value was 3.64^[a].

As to `CCC(C)NC(=C(C#N)C(=O)OC)c1sc(C)nc1C(F)(F)F` (stereo not shown) [Compound 831], the “Log P” value was 3.23^[a].

Regarding `CCOC(=O)C(C#N)=C(NCCOc1ccccc1Br)c1cccnc1Cl` [Compound 1377], the “Log P” value was 3.53^[a].

For `CCOC(=O)C(C#N)=C(NC(C)Cc1c[nH]c2ccccc12)c1cn(C)nc1C(F)F` (racemic) [Compound 35], the “Log P” value was 3.25^[a].

As for `CCOC(=O)C(C#N)=C(Nc1ccc(OC(F)F)cc1)c1cccnc1Cl` [Compound 1169], the “Log P” value is 3.19^[a].

On to `COC(=O)C(C#N)=C(NC1CCC(C(F)(F)F)CC1)c1cccnc1Cl` (stereo not shown) [Compound 1075], for which the “Log P” value is 3.04^[a].

For the compound `CCOC(=O)C(C#N)=C(NC(C)c1cnccn1)c1cccnc1Cl` (racemic) [Compound 1415], the “Log P” value is 2.13^[a].

Take `CCOC(=O)C(C#N)=C(Nc1ccccc1Cl)c1cn(C)nc1C(F)F` [Compound 1216]: the “Log P” value was 3.15^[a].

With `CCOC(=O)C(C#N)=C(Nc1ccccc1SC)c1ncc(Cl)cc1Cl` [Compound 503], the “Log P” value is 4.09^[a].

For `COC(=O)C(C#N)=C(NCc1nc(C)cs1)c1sc(C)nc1C(F)(F)F` [Compound 181], the “Log P” value is 2.58^[a].

For the compound `COC(=O)C(C#N)=C(NC1CCCC(C)C1)c1cccnc1Cl` (stereo not shown) [Compound 1074], the “Log P” value is 3.37^[a].

For `COC(=O)C(C#N)=C(NC(C)C(N)=O)c1cn(C)nc1C(F)F` (stereo not shown) [Compound 598], the lipophilicity (Log P) was 1.3^[a].

Take `C=CC(COCc1ccccc1)NC(=C(C#N)C(=O)OCC)c1cccnc1Cl` (stereo not shown) [Compound 1197]: the “Log P” value is 3.8^[a].

Regarding `CCOC(=O)C(C#N)=C(NC(C)C1(Cl)CC1)c1cccnc1Cl` (stereo not shown) [Compound 1182], the “Log P” value is 3.33^[a].

With `CCOC(=O)C(C#N)=C(NC(C)C(C)OC)c1cnn(C)c1Cl` (mixture of isomers) [Compound 1543], the “Log P” value was 2.67^[a].

Consider `CCOC(=O)C(C#N)=C(NC(C)C(C)(C)C)c1sc(C)nc1C(F)(F)F` (racemic) [Compound 922], for which the “Log P” value was 4.21^[a].

`CCOC(=O)C(C#N)=C(NC(C)c1nc(C)c(C)s1)c1ccsc1Br` (stereo not shown) [Compound 112]: the “Log P” value was 3.7^[a].

`CCOC(=O)C(C#N)=C(NC(C)c1c(Cl)cccc1Cl)c1cn(C)nc1C(Cl)Cl` (stereo not shown) [Compound 1574]: the “Log P” value was 3.94^[a].

`CCN(OC)C(=O)C(C#N)=C(NC(C)C(C)C)c1cccnc1Cl` (stereo not shown) [Compound 1514]: the log partition coefficient (Log P) is 3.15^[a].

Take `CONC(=O)C(C#N)=C(NC(C)c1ccccn1)c1cccnc1Cl` (stereo not shown) [Compound 1583]: the “Log P” value is 1.46^[a].

As for `CCOC(=O)C(C#N)=C(NC(C)COCc1ccccc1Cl)c1cn(C)nc1C(F)F` (racemic) [Compound 1241], the “Log P” value is 3.83^[a].

For the compound `CCOC(=O)C(C#N)=C(NCc1nccs1)c1cnccc1C(F)(F)F` [Compound 272], the “Log P” value is 2.4^[a].

`CCOC(=O)C(C#N)=C(NC(C)c1ccccn1)c1c(C(F)(F)F)nn(C)c1F` (mixture of isomers) [Compound 310]: the “Log P” value is 3.12^[a].

Regarding `CCOC(=O)C(C#N)=C(Nc1ccc(SC)cc1)c1sccc1C(F)(F)F` [Compound 462], the “Log P” value was 4.09^[a].

For `CCOC(=O)C(C#N)=C(Nc1ccccc1OC(C)C)c1cccnc1Cl` [Compound 1168], the “Log P” value was 3.8^[a].

With `CCOC(=O)C(C#N)=C(NCc1nccs1)c1sccc1C(F)(F)F` [Compound 95], the “Log P” value is 2.82^[a].

Take `CCOC(=O)C(C#N)=C(NC(COC)COC)c1cn(C)nc1C(F)F` [Compound 1341]: the “Log P” value is 2.42^[a].

Regarding `CCOC(=O)C(C#N)=C(Nc1cccc(SC)c1)c1sc(C)nc1C(F)(F)F` [Compound 505], the “Log P” value is 3.89^[a].

With `CCOC(=O)C(C#N)=C(NC(C)Cc1cccnc1)c1cccnc1Cl` (mixture of isomers) [Compound 296], the “Log P” value was 1.57^[a].

On to `CCOC(=O)C(C#N)=C(NC(C)C(C)C)c1sc(C)nc1C(F)(F)F` (stereo not shown) [Compound 949], for which the “Log P” value is 3.95^[a].

For the compound `CCOC(=O)C(C#N)=C(NC(C)CCCC(C)C)c1ccsc1Br` (stereo not shown) [Compound 930], the “Log P” value is 5.32^[a].

`CCOC(=O)C(C#N)=C(Nc1cccc(Cl)c1)c1sccc1Br` [Compound 459]: the “Log P” value was 4.09^[a].

For `CCOC(=O)C(C#N)=C(NC(C)c1nccs1)c1c(C(F)F)nn(C)c1F` (mixture of isomers) [Compound 309], the “Log P” value is 2.73^[a].

On to `CCOC(=O)C(C#N)=C(NC(C)CC)c1cc(C)oc1C` (stereo not shown) [Compound 825], for which the “Log P” value was 3.63^[a].

Consider `CCOC(=O)C(C#N)=C(NC(C)c1ccccn1)c1cn(C)nc1C(C)C` (stereo not shown) [Compound 1207], for which the lipophilicity (Log P) was 2.58^[a].

`CCNC(=O)C(C#N)=C(NCC(C)c1nccs1)c1cccnc1Cl` (stereo not shown) [Compound 1120]: the “Log P” value was 2.14^[a].

On to `COC(=O)C(C#N)=C(NC(C)C1CCCO1)c1sc(C)nc1C(F)(F)F` (mixture of isomers) [Compound 178], for which the “Log P” value was 1.97^[a].

The same series, now with this note: pH 7.5.
For `CCOC(=O)C(C#N)=C(NC(C)c1nccs1)c1cccnc1Br` (racemic) [Compound 1547], the “Log P” value is recorded as 2.44.

In the case of `CCOC(=O)C(C#N)=C(NC(C)C(C)C)c1cccnc1-c1ccc(OC(F)(F)F)cc1` (stereo not shown) [Compound 1586], the “Log P” value was determined as 4.41.

On to `CCOC(=O)C(C#N)=C(Nc1ccccc1F)c1cccnc1Cl` [Compound 1590], for which the “Log P” value is 2.85.

In the case of `CCOC(=O)C(C#N)=C(NC(C)CBr)c1cccnc1Cl` (stereo not shown) [Compound 767], the lipophilicity (Log P) was determined as 2.79.

As for `CCOC(=O)C(C#N)=C(NC(C)c1nccs1)c1ccc(C)nc1Cl` (stereo not shown) [Compound 24], the lipophilicity (Log P) was 2.62.

Take `COC(=O)C(C#N)=C(NCC1OCCO1)c1cccnc1Cl` [Compound 14]: the “Log P” value is reported as 1.77.
